Assay results published in US20120035187A1 (priority 2009, published 2012).
Like-named read-outs stand apart in the source and are kept apart here. Marks after values point to notes of the source that are not given here.

Assays:
[1] = molecular target: T1, human amyloid β peptide (Homo sapiens, UniProt P05067); assay: Agglutination of amyloid β peptide, thioflavine T method; type: biochemical; details: 45 μl of 200 nM test sample solution + 15 μl amyloid β peptide solution, 37° C., six days, thioflavine T fluorescence; for inhibition at 0.2 µM: read-out: Inhibition rate (%) of agglutination of amyloid β peptide
T1 construct: purchased AnaSpec Inc., CA, USA
Protocol: The filtrate was made into a test sample solution by adjusting the concentration to 200 nM using Tris-HCl buffer.
The agglutination of amyloid β peptide was measured by a method using thioflavine T (see Hilal A. Lashuel et al., Journal of Biological Chemistry, Vol. 277, No. 45, pp. 42881-42890 (2002)). Thioflavine T binds to […] structure of agglutinated amyloid β peptide and produces fluorescence. The amount of the fluorescence was determined using a fluorometric plate reader and used as an index of the agglutination of amyloid β peptide. When the agglutination of amyloid β peptide is inhibited by the test sample, fluorescence of Thioflavine T is decreased. The effects of the test samples on the agglutination of amyloid β peptide were investigated by the method. A human amyloid β peptide, having the amino acid sequence of SEQ ID NO:2 consisting of 40 amino acids, commercialized by AnaSpec Inc., CA, USA, was dissolved in sterilized distilled water to give a concentration of 400 μM for use. Test samples were diluted with Tris-HCl buffer. In a reaction vessel, 15 μl of […] admixed with 45 μl of a 200 nM test sample solution and allowed to react at 37° C. for six days. After the reaction, 50 μl of the reaction mixture was withdrawn, admixed with 450 μl of a 10 μM Thioflavine T solution, and after 30 minutes, the resulting fluorescence was measured using a fluorometer (excitation wavelength: 450 nm, […]: 482 nm). The fluorescent intensity of Thioflavine T only was regarded as 0%, and that of the solution, prepared by mixing 15 μl of a […] amyloid β peptide solution and 45 μl of Tris-HCl buffer and allowing to react at 37° C. for six days, was regarded as 100%. Inhibition rate (%) of the agglutination of amyloid β peptide was determined by the steps of measuring the relative fluorescence intensity in the case of using each test sample solution for the reaction, and subtracting the measured value from 100%.

[2] = test system: brain ischemia rat; assay: Brain ischemia (cerebral infarction model) rat: size/volume of cerebral infarction region (TTC); type: in vivo; details: for increment of the volume of cerebral infarction region (in words): Experiment 13, cerebral-infarction-model rat, administered through caudal vein; for Size of cerebral infarcttion region (%): brain ischemia rats, 100 p g/kg body weight via caudal vein twice, relative to control group 1 = 100%; for Volume of cerebral infarction region (mm^3): embolus rat, caudal vein
[3] = molecular target: T2, acetylcholine esterase (AchE) (Rattus norvegicus, UniProt P37136); assay: biochemical; type: biochemical; details: for action of inhibiting AchE activity (in words): Experiment 14, comparison of NK-4 analogues and NK-150
T2 sequence (P37136 32-614): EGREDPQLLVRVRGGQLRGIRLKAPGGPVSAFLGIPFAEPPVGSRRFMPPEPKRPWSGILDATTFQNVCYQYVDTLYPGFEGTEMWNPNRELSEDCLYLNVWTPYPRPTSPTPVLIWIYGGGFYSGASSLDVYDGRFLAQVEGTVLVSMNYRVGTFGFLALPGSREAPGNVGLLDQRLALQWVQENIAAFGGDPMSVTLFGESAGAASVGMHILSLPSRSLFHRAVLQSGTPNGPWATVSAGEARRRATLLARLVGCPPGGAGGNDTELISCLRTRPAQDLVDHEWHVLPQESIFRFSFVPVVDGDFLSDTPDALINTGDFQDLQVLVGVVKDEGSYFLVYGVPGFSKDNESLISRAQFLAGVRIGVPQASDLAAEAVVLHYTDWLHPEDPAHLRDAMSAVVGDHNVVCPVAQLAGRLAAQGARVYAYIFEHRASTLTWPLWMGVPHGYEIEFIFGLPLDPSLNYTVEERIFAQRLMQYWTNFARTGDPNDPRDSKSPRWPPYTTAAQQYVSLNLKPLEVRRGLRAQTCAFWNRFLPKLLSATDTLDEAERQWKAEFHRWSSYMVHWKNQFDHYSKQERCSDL

[4] = concentration of compound 0.78 μg/ml
[5] = concentration of compound 1.56 μg/ml
[6] = concentration of compound 3.13 μg/ml
[7] = concentration of compound 6.25 μg/ml
[8] = concentration of compound 12.5 μg/ml
[9] = concentration of compound 25 μg/ml
[10] = concentration of compound 50 μg/ml
[11] = concentration that suppresses AchE activity by 50%, calculated from residual ratios
[12] = compound concentration 0.78 μg/ml, read-out: Residual ratio of AchE activity (%)
[13] = compound concentration 1.56 μg/ml, read-out: Residual ratio of AchE activity (%)
[14] = compound concentration 3.13 μg/ml, read-out: Residual ratio of AchE activity (%)
[15] = compound concentration 6.25 μg/ml, read-out: Residual ratio of AchE activity (%)
[16] = compound concentration 12.5 μg/ml, read-out: Residual ratio of AchE activity (%)
[17] = compound concentration 25 μg/ml, read-out: Residual ratio of AchE activity (%)

T1 sequence (P05067 672-711): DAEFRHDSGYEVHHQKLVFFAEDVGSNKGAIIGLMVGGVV

CCN1C=CC(=CC=C(C=Cc2cc[n+](CC)c3ccccc23)c2cc[n+](CC)c3ccccc23)c2ccccc21.[I-].[I-] [NK-4] was tested, and the “Inhibition rate (%) of agglutination of amyloid β peptide” value [1] was 73%, the “increment of the volume of cerebral infarction region (in words)” value [2] was “significantly suppressed” and the “Size of cerebral infarcttion region (%)” value [2] was 49.4 ± 5.1 %. For the same compound, the “Volume of cerebral infarction region (mm^3)” value (shortened to “Volume … (mm^3)”) ([2]; dose 25 μg per kg body weight) was 186 ± 21 mm^3, the “Volume … (mm^3)” value ([2]; dose 50 μg per kg body weight) was 107 ± 21* mm^3 and the “Volume … (mm^3)” value ([2]; dose 100 μg per kg body weight) was 88 ± 18** mm^3. For the same compound, the “Volume … (mm^3)” value ([2]; dose 200 μg per kg body weight) was 143 ± 26 mm^3, the “Volume … (mm^3)” value ([2]; dose 300 μg per kg body weight) was 176 ± 31 mm^3 and the “IC50 (concentration of a compound inhibiting the AchE activity of 50%)” value ([3]; AchE solution from PC12-HS cells) was 3.3 µg/mL. The “action of inhibiting AchE activity (in words)” value [3] was “strongly inhibited AchE activity”, the “Residual ratio of AchE activity (%)” value ([3]; compound concentration 0.78 μg/ml) was 84 ± 6% and the “Residual ratio of AchE activity (%)” value ([3]; compound concentration 1.56 μg/ml) was 66 ± 7%. The “Residual ratio of AchE activity (%)” value ([3]; compound concentration 3.13 μg/ml) was 42 ± 4 %, the “Residual ratio of AchE activity (%)” value ([3]; compound concentration 6.25 μg/ml) was 37 ± 10 % and the “Residual ratio of AchE activity (%)” value ([3]; compound concentration 12.5 μg/ml) was 38 ± 2 %. For the same compound, the “Residual ratio of AchE activity (%)” value ([3]; compound concentration 25 μg/ml) was 30 ± 8 %, the “Residual ratio of AchE activity (%)” value [3, 4] was 91 ± 4% and the “Residual ratio of AchE activity (%)” value [3, 5] was 47 ± 4 %. For the same compound, the “Residual ratio of AchE activity (%)” value [3, 6] was 41 ± 9 %, the “Residual ratio of AchE activity (%)” value [3, 7] was 38 ± 7 % and the “Residual ratio of AchE activity (%)” value [3, 8] was 24 ± 2 %. The “Residual ratio of AchE activity (%)” value [3, 9] was 25 ± 3 %, the “Residual ratio of AchE activity (%)” value [3, 10] was 22 ± 2 % and the “IC50” value [3, 11] was 1.5 µg/mL.
With CC[n+]1ccccc1/C=C/c1ccc(N(C)C)cc1 [NK-557] the inhibition at 0.2 µM [1] was 95%, the “Size of cerebral infarcttion region (%)” value [2] was 61.1 ± 14.2% and the remaining activity at 0.78 µg/mL [3, 12] was 110 ± 1%. For the same compound, the remaining activity at 1.56 µg/mL [3, 13] was 107 ± 2%, the remaining activity at 3.13 µg/mL [3, 14] was 97 ± 5% and the remaining activity at 6.25 µg/mL [3, 15] was 97 ± 3%. The remaining activity at 12.5 µg/mL [3, 16] was 97 ± 4% and the remaining activity at 25 µg/mL [3, 17] was 88 ± 9%.
With CCCN1C=CC(=CC=C(C=Cc2cc[n+](CCC)c3ccccc23)c2cc[n+](CCC)c3ccccc23)c2ccccc21.[I-].[I-] [NK-234] the “action of inhibiting AchE activity (in words)” value [3] was “strongly inhibited AchE activity”, the “Residual ratio of AchE activity (%)” value [3, 4] was 77 ± 21% and the “Residual ratio of AchE activity (%)” value [3, 5] was 77 ± 13%. The “Residual ratio of AchE activity (%)” value [3, 6] was 47 ± 11 %, the “Residual ratio of AchE activity (%)” value [3, 7] was 45 ± 9 % and the “Residual ratio of AchE activity (%)” value [3, 8] was 30 ± 12 %. For the same compound, the “Residual ratio of AchE activity (%)” value [3, 9] was 26 ± 6 %, the “Residual ratio of AchE activity (%)” value [3, 10] was 12 ± 6 % and the “IC50” value [3, 11] was 3.0 µg/mL.
In the case of CCN1/C(=C/C=C(/C=C/c2sc3ccccc3[n+]2CC)c2sc3ccccc3[n+]2CC)Sc2ccccc21.[I-].[I-] [NK-100], the inhibition at 0.2 µM [1] is reported as 99%, the “Size of cerebral infarcttion region (%)” value [2] is reported as 74.5 ± 11.4% and the IC50 ([3]; AchE solution from PC12-HS cells, read-out: IC50 (concentration of a compound inhibiting the AchE activity of 50%) (converted)) is reported as 14.6 µM. It also gave a remaining activity at 0.78 µg/mL [3, 12] of 77 ± 18%, a remaining activity at 1.56 µg/mL [3, 13] of 68 ± 16% and a remaining activity at 3.13 µg/mL [3, 14] of 67 ± 3%. For the same compound, the remaining activity at 6.25 µg/mL [3, 15] was 60 ± 3%, the remaining activity at 12.5 µg/mL [3, 16] was 49 ± 5% and the remaining activity at 25 µg/mL [3, 17] was 43 ± 3%.
In the case of CCCCN1C=C/C(=C/C=C(/C=C/c2cc[n+](CCCC)c3ccccc23)c2cc[n+](CCCC)c3ccccc23)c2ccccc21 [NK-26], the “increment of the volume of cerebral infarction region (in words)” value [2] is reported as “significantly suppressed”, the “Volume … (mm^3)” value ([2]; dose 1 μg per kg body weight) is reported as 194 ± 22 mm^3 and the “Volume … (mm^3)” value ([2]; dose 10 μg per kg body weight) is reported as 121 ± 22* mm^3. For the same compound, the “Volume … (mm^3)” value ([2]; dose 100 μg per kg body weight) was 169 ± 23 mm^3, the remaining activity at 0.78 µg/mL ([3]; concentration of compound 0.78 μg/ml, read-out: Residual ratio of AchE activity (%)) was 94 ± 11% and the remaining activity at 1.56 µg/mL ([3]; concentration of compound 1.56 μg/ml, read-out: Residual ratio of AchE activity (%)) was 84 ± 9%. It also gave a remaining activity at 3.13 µg/mL ([3]; concentration of compound 3.13 μg/ml, read-out: Residual ratio of AchE activity (%)) of 88 ± 8%, a remaining activity at 6.25 µg/mL ([3]; concentration of compound 6.25 μg/ml, read-out: Residual ratio of AchE activity (%)) of 88 ± 7% and a remaining activity at 12.5 µg/mL ([3]; concentration of compound 12.5 μg/ml, read-out: Residual ratio of AchE activity (%)) of 69 ± 5%. It also gave a remaining activity at 25 µg/mL ([3]; concentration of compound 25 μg/ml, read-out: Residual ratio of AchE activity (%)) of 48 ± 4%, a remaining activity at 50 µg/mL ([3]; concentration of compound 50 μg/ml, read-out: Residual ratio of AchE activity (%)) of 36 ± 9% and an IC50 ([3]; concentration that suppresses AchE activity by 50%, calculated from residual ratios, read-out: IC50 (μg/ml) (converted)) of 37.6 µM.
